Each structure is given as a SMILES string. Where only a bound is given, the exact number is not on record here.

In the assay the target is T1, hROCK-2 (Homo sapiens, UniProt O75116).
T1 construct: purchased Upstate
Description: ROCK-2 Assay (33P-ATP FlashPlate kinase assay, biotinylated S6 peptide). It counts as biochemical. To be noted: hROCK-2 0.8 nM, 5 μM ATP, 1.5 μM biotinylated S6 peptide, room temperature, 60 min. Here is the method:
The reaction is stopped by addition of 150 μl of 0.1 M EDTA in Dulbecco's PBS. 170 μl from each well are loaded onto a FlashPlate (PerkinElmer) and incubated at room temperature for 30 min.

T1 sequence (O75116 whole entry): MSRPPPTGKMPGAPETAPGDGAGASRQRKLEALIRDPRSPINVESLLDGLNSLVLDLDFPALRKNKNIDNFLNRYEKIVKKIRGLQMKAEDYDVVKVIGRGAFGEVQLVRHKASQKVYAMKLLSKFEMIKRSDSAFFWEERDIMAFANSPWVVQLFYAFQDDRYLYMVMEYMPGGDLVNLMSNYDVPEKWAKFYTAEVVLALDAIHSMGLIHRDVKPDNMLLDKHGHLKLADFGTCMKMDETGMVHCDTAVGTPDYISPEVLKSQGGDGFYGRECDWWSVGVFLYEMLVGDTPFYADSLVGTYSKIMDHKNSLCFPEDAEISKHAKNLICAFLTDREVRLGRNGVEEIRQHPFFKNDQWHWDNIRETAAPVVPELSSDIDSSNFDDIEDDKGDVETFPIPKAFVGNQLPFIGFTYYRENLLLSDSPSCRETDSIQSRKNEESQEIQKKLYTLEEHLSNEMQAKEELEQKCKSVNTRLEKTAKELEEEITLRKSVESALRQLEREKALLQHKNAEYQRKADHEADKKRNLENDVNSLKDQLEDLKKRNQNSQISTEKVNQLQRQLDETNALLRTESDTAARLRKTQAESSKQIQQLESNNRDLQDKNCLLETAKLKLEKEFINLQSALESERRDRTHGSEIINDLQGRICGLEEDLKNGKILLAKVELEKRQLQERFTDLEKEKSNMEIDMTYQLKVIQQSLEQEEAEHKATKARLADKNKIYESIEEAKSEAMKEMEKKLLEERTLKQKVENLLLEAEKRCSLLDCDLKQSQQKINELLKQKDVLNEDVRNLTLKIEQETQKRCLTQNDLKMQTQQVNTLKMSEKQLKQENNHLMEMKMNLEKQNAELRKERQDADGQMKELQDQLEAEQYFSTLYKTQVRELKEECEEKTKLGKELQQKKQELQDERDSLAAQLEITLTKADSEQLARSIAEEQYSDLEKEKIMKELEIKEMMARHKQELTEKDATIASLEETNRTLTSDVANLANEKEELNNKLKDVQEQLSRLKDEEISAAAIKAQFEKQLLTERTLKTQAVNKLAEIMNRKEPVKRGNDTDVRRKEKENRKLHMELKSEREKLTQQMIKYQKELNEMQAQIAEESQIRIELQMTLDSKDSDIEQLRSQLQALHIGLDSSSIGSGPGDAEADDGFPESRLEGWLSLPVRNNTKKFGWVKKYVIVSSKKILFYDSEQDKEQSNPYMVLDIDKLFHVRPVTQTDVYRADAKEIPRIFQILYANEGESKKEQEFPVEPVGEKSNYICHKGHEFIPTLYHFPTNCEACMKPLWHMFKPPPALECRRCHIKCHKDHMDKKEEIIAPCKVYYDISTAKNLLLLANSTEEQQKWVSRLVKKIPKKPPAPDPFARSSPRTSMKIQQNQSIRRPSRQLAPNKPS

Molecule `COc1cc(-c2ccncc2)ccc1C(=O)N[C@@H](C)c1ccccc1` [Example 114, 2-methoxy-N—((S)-1-phenyl-ethyl)-4-pyridin-4-yl-benzamide] had a Ki of 0.05 to 0.5 µM.

Molecule `COc1cccc([C@H](C)NC(=O)c2ccc(-c3ccncc3)cc2OC)c1` [Example 130, 2-methoxy-N—[(S)-1-(3-methoxy-phenyl)-ethyl]-4-pyridin-4-yl-benzamide] registered a Ki of 0.05 to 0.5 µM.

On to `COc1cc(-c2ccncc2)ccc1C(=O)N[C@H](C)c1cccc(C(F)(F)F)c1` [Example 132, 2-methoxy-4-pyridin-4-yl-N—[(R)-1-(3-trifluoromethyl-phenyl)-ethyl]-benzamide], for which the Ki was under 0.05 µM.

As to `COc1cc(-c2ccncc2)ccc1C(=O)NC(CO)c1cc(Cl)cc(Cl)c1` (centres unmarked) [Example 135, N-[1-(3,5-dichloro-phenyl)-2-hydroxy-ethyl]-2-methoxy-4-pyridin-4-ylbenzamide], the Ki was under 0.05 µM.

In turn, `COc1cc(-c2ccncc2)ccc1C(=O)NC(CO)c1cccc2ccccc12` (centres unmarked) [Example 140, N-(2-hydroxy-1-naphthalen-1-yl-ethyl)-2-methoxy-4-pyridin-4-ylbenzamide] gave a Ki of under 0.05 µM.

`COc1cccc(C(CN2CCCC2)NC(=O)c2ccc(-c3ccncc3)cc2)c1` (centres unmarked) [Example 149, N-[1-(3-methoxy-phenyl)-2-pyrrolidin-1-yl-ethyl]-4-pyridin-4-yl-benzamide] gave a Ki of under 0.05 µM.

`CC(NC(=O)c1ccc(-c2ccncc2)cc1)c1cccc(OCc2ccccc2)c1` (centres unmarked) [Example 151, N-[1-(3-benzyloxy-phenyl)-ethyl]-4-pyridin-4-yl-benzamide] gave a Ki of under 0.05 µM.

`CC(C)Oc1cccc(C(C)NC(=O)c2ccc(-c3ccncc3)cc2)c1` (centres unmarked) [Example 152, N-[1-(3-isopropoxy-phenyl)-ethyl]-4-pyridin-4-yl-benzamide] registered a Ki of under 0.05 µM.

In turn, `CC(C)COc1cccc(C(C)NC(=O)c2ccc(-c3ccncc3)cc2)c1` (centres unmarked) [Example 153, N-[1-(3-isobutoxy-phenyl)-ethyl]-4-pyridin-4-yl-benzamide] gave a Ki of under 0.05 µM.

In the case of `COc1cccc([C@@H](C)NC(=O)c2ccc(-c3ccncc3)c(Cl)c2)c1` [Example 156, 3-Chloro-N—[(R)-1-(3-methoxy-phenyl)-ethyl]-4-pyridin-4-yl-benzamide], the Ki is under 0.05 µM.

For the molecule `Cc1cnccc1-c1ccc(C(=O)N[C@H](C)c2ccccc2)cc1` [Example 157, 4-(3-methyl-pyridin-4-yl)-N—((R)-1-phenyl-ethyl)-benzamide], the inhibitory constant (Ki) was under 0.05 µM.

The molecule `Cc1cnccc1-c1ccc(C(=O)N[C@H](C)c2cccc3ccccc23)cc1` [Example 159, 4-(3-methyl-pyridin-4-yl)-N—((R)-1-naphthalen-1-yl-ethyl)-benzamide] came in with a Ki of under 0.05 µM.

In the case of `Cc1cnccc1-c1ccc(C(=O)NC2CCCc3ccccc32)cc1` (centres unmarked) [Example 160, 4-(3-methyl-pyridin-4-yl)-N-(1,2,3,4-tetrahydro-naphthalen-1-yl)-benzamide], the Ki was 0.05 to 0.5 µM.

Take `Cc1cnccc1-c1ccc(C(=O)N[C@H](C)c2ccc(Br)cc2)cc1` [Example 166, N—[(R)-1-(4-bromo-phenyl)-ethyl]-4-(3-methyl-pyridin-4-yl)-benzamide]: the Ki was 0.05 to 0.5 µM.

`Cc1cnccc1-c1ccc(C(=O)N[C@H](C)c2ccc(Cl)cc2)cc1` [Example 168, N—[(R)-1-(4-chloro-phenyl)-ethyl]-4-(3-methyl-pyridin-4-yl)-benzamide] registered a Ki of 0.05 to 0.5 µM.

As for `Cc1cnccc1-c1ccc(C(=O)N[C@H](C)c2ccc3ccccc3c2)cc1` [Example 170, 4-(3-methyl-pyridin-4-yl)-N—((R)-1-naphthalen-2-yl-ethyl)-benzamide], the Ki lay in the range of 0.05 to 0.5 µM.

`COc1ccccc1C(CO)NC(=O)c1ccc(-c2ccncc2C)cc1` (centres unmarked) [Example 171, N-[2-hydroxy-1-(2-methoxy-phenyl)-ethyl]-4-(3-methyl-pyridin-4-yl)-benzamide]: the Ki fell in the range of 0.05 to 0.5 µM.

For `Cc1cnccc1-c1ccc(C(=O)NC(CO)c2cccc3ccccc23)cc1` (centres unmarked) [Example 172, N-(2-hydroxy-1-naphthalen-1-yl-ethyl)-4-(3-methyl-pyridin-4-yl)-benzamide], the Ki was under 0.05 µM.

As for `COc1ccccc1[C@@H](C)NC(=O)c1ccc(-c2ccncc2C)cc1` [Example 175, N—[(R)-1-(2-methoxy-phenyl)-ethyl]-4-(3-methyl-pyridin-4-yl)-benzamide], the Ki lay in the range of 0.05 to 0.5 µM.

As for `COc1cccc([C@H](C)NC(=O)c2ccc(-c3ccncc3C)cc2)c1` [Example 179, N—[(S)-1-(3-methoxy-phenyl)-ethyl]-4-(3-methyl-pyridin-4-yl)-benzamide], the Ki fell in the range of 0.05 to 0.5 µM.

As for `Cc1cnccc1-c1ccc(C(=O)N[C@H](C)c2ccc(F)cc2)cc1` [Example 180, N—[(R)-1-(4-fluoro-phenyl)-ethyl]-4-(3-methyl-pyridin-4-yl)-benzamide], the Ki is under 0.05 µM.

Take `Cc1cnccc1-c1ccc(C(=O)N[C@H](C)c2cccc(C(F)(F)F)c2)cc1` [Example 181, 4-(3-methyl-pyridin-4-yl)-N—[(R)-1-(3-trifluoromethyl-phenyl)-ethyl]-benzamide]: the Ki is under 0.05 µM.

In the case of `Cc1cnccc1-c1ccc(C(=O)NC(CO)c2cc(Cl)cc(Cl)c2)cc1` (centres unmarked) [Example 185, N-[1-(3,5-dichloro-phenyl)-2-hydroxy-ethyl]-4-(3-methyl-pyridin-4-yl)-benzamide], the Ki was 0.05 to 0.5 µM.

The molecule `O=C(NC(CO)c1cccc2ccccc12)c1ccc(-c2ccncc2)cc1` (centres unmarked) [Example 187, N-(2-hydroxy-1-naphthalen-1-yl-ethyl)-4-pyridin-4-yl-benzamide] had a Ki of under 0.05 µM.

The molecule `COC[C@@H](NC(=O)c1ccc(-c2ccncc2)cc1)c1ccccc1` [Example 188, N—((S)-2-methoxy-1-phenyl-ethyl)-4-pyridin-4-yl-benzamide] returned a Ki of under 0.05 µM.

On to `COc1ccc(C(C)NC(=O)c2ccc(-c3ccncc3)cc2)c2ccccc12` (centres unmarked) [Example 189, N-[1-(4-methoxy-naphthalen-1-yl)-ethyl]-4-pyridin-4-yl-benzamide], for which the Ki is 0.05 to 0.5 µM.

In turn, `C[C@@H](NC(=O)c1ccc(-c2ccncc2)cc1Cl)c1ccccc1` [Example 191, 2-chloro-N—((R)-1-phenyl-ethyl)-4-pyridin-4-yl-benzamide] gave a Ki of 0.05 to 0.5 µM.

For `C[C@@H](NC(=O)c1ccc(-c2ccncc2)cc1Cl)c1cccc2ccccc12` [Example 192, 2-chloro-N—((R)-1-naphthalen-1-yl-ethyl)-4-pyridin-4-yl-benzamide], the Ki was under 0.05 µM.

`C[C@@H](NC(=O)c1ccc(-c2ccncc2)c(F)c1)c1cccc2ccccc12` [Example 217, 3-fluoro-N—((R)-1-naphthalen-1-yl-ethyl)-4-pyridin-4-yl-benzamide] yielded a Ki of under 0.05 µM.

For `C[C@@H](NC(=O)c1ccc(-c2ccncc2)c(F)c1)c1ccc2ccccc2c1` [Example 229, 3-fluoro-N—((R)-1-naphthalen-2-yl-ethyl)-4-pyridin-4-yl-benzamide], the Ki was in the range of 0.05 to 0.5 µM.

Turning to `COc1cccc([C@H](C)NC(=O)c2ccc(-c3ccncc3)c(F)c2)c1` [Example 236, 3-fluoro-N—[(S)-1-(3-methoxy-phenyl)-ethyl]-4-pyridin-4-yl-benzamide], the Ki was 0.05 to 0.5 µM.

In turn, `COc1cccc([C@@H](C)NC(=O)c2ccc(-c3ccncc3)cc2Cl)c1` [Example 243, 2-chloro-N—[(R)-1-(3-methoxy-phenyl)-ethyl]-4-pyridin-4-yl-benzamide] had a Ki of under 0.05 µM.

Take `COc1cccc([C@@H](C)NC(=O)c2ccc(-c3ccncc3)c(F)c2)c1` [Example 244, 3-fluoro-N—[(R)-1-(3-methoxy-phenyl)-ethyl]-4-pyridin-4-yl-benzamide]: the Ki was under 0.05 µM.

With `COc1cccc([C@@H](C)NC(=O)c2ccc(-c3ccncc3)cc2F)c1` [Example 245, 2-fluoro-N—[(R)-1-(3-methoxy-phenyl)-ethyl]-4-pyridin-4-yl-benzamide], the Ki was under 0.05 µM.

In the case of `COc1cccc([C@@H](C)NC(=O)c2ccc(-c3ccncc3F)cc2C)c1` [Example 246, 4-(3-fluoro-pyridin-4-yl)-N—[(R)-1-(3-methoxy-phenyl)-ethyl]-2-methyl-benzamide], the Ki is under 0.05 µM.

The molecule `COc1cccc([C@@H](C)NC(=O)c2ccc(-c3ccncc3F)cc2OC)c1` [Example 247, 4-(3-fluoro-pyridin-4-yl)-2-methoxy-N—[(R)-1-(3-methoxy-phenyl)-ethyl]-benzamide] yielded a Ki of under 0.05 µM.

On to `COc1cccc([C@@H](C)NC(=O)c2ccc(-c3cc(F)ncc3C)cc2)c1` [Example 248, 4-(2-fluoro-5-methyl-pyridin-4-yl)-N—[(R)-1-(3-methoxy-phenyl)-ethyl]-benzamide], for which the Ki was under 0.05 µM.

As for `CCOc1cc(-c2ccncc2)ccc1C(=O)N[C@H](C)c1cccc(OC)c1` [Example 249, 2-ethoxy-N—[(R)-1-(3-methoxy-phenyl)-ethyl]-4-pyridin-4-yl-benzamide], the Ki is under 0.05 µM.

These data come from patent publication US20150105386A1, “4-(4-PYRIDINYL)-BENZAMIDES AND THEIR USE AS ROCK ACTIVITY MODULATORS” (AbbVie Deutschland GmbH & Co KG, priority 2007, published 2015).
